These results are taken from ChEMBL document CHEMBL4392837, “Identification of highly potent and selective MMP2 inhibitors addressing the S1' subsite with d-proline-based compounds” (Bioorg Med Chem, 2019).

The structures appear in SMILES notation. The source made the active and inactive calls. No cut-off for these calls is given here.

For this assay, the species on record is Homo sapiens. The experiment in a line: Inhibition of cell migration of human A375M6 cells at 1 to 10 uM incubated for 6 hrs by Boyden chambers assay. The assay is classed as functional.

As for `CNC(=O)[C@H](Cc1c[nH]c2ccccc12)NC(=O)[C@@H](CC(=O)NO)CC(C)C`, the inhibition result was “Active”.
